Results reported in patent US8013047B2, “Oligo- and poly-carbonates terminated with silicon containing groups as surface modifiers” (priority 2005, dated 2011).

Legend:
[1] = tested on: Staphylococcus aureus ATCC 6538; experiment: Adhesion of microbes onto polycarbonate extrusion sheets (microtiterplate immunological assay); assay type: cell-based; details: 5% Tinuvin 1577 alone in polycarbonate sheet; residual adhesion relative to control = 100%; 60 min incubation
Protocol: (§1) A polycarbonate powder [Makrolon 3108 FBL (RTM) from Bayer] is dried in a vacuum oven for eight hours at 120° C. Appropriate amounts of each compound of the formula I is added to the dried polycarbonate powder to obtain formulations containing up to 10% by weight of the compound of the formula I. The formulations are mixed in a Grindo Mix GM 200 and compounded to pellets in a twin-screw extruder (Haake DS16-L/D25 from Thermo Electron Corporation) and further extruded to sheets with a width of 110 mm and thickness of 0.2 mm using a single-screw extruder equipped with a flat die (Collin CR-136/350). The processing temperature is around 280° C. All produced sheets have a transparent visual appearance.
In order to measure the reduced adhesion of microbes onto polymer surfaces the following testing procedure is applied:
The test system is microtiterplate based and is conducted according to the method described in Nature Medicine Vol. 6, No. 8, 1053-1056. Samples equipped with active compounds and untreated control samples are prepared to obtain a same sample size of max. 7×4 mm. […] The microbial cells adhering to the pieces are detected in an immunological assay using specific antibodies against the test strain, which are then detected […]. […]

[2] = Contact angle of extrusion tapes, compounds as bulk material or additive (sessile drop, water); assay type: physicochemical; details: 5% Tinuvin 1577 in 95% Makrolon 3108 FBL, extrusion tape
Protocol: Appropriate amounts of each compound of the formula I are dried in a vacuum oven for eight hours at 120° C. They are extruded in a twin-screw extruder (MiniLab extruder from Thermo Electron Corporation) equipped with a flat die. In this way, tapes are produced with a width of 5 mm and a thickness of around 0.5 mm. The processing temperature is around 280° C. All produced tapes have a transparent visual appearance. The contact angle of the produced tapes are measured with a Dataphysics OCA 30 contact angle device, using the sessile drop method and water as measuring liquid.

[3] = Contact angle of polycarbonate extrusion sheets (sessile drop, water); assay type: physicochemical; details: 5% Tinuvin 1577 alone in polycarbonate extrusion sheet
Protocol: as §1
The surface properties were evaluated by measuring the contact angle of the polycarbonate sheets described in Example 16 with a Dataphysics OCA 30 contact angle device, using the sessile drop method and water as measuring liquid.

SMILES: CCCCCCOc1ccc(-c2nc(-c3ccccc3)nc(-c3ccccc3)n2)c(O)c1 [Tinuvin 1577]
- Adhesion of Staphylococcus aureus ATCC 6538 on polycarbonate in % [1]: 104%
- Contact angle (°) [2]: 86 °
- Contact angle (°) [3]: 86 °
